Values quoted from earlier work as cited in patent US11071785B2, “Liquid formulation of long-lasting protein conjugate comprising the oxyntomodulin and an immunoglobulin Fc region” (HANMI PHARM, CO., LTD, priority 2012, dated 2021).

What was measured:
[1] = when administered for 1 year
[2] = in vivo

For CCCCCCCCCCC[C@@H](C[C@@H]1OC(=O)[C@H]1CCCCCC)OC(=O)[C@H](CC(C)C)NC=O [Orlistat], the weight reduction effect [1] is listed as “about 4 kg”.

In the case of Cc1c(C(=O)NN2CCCCC2)nn(-c2ccc(Cl)cc2Cl)c1-c1ccc(Cl)cc1 [Rimonabant], the side effects reported [2] is given as “disorders of the central nervous system”.

For CC(C)CC(N(C)C)C1(c2ccc(Cl)cc2)CCC1 (stereo not shown) [Sibutramine], the side effects reported [2] is given as “cardiovascular side effects”.

For Contrave, the side effects reported [2] is listed as “cardiovascular side effects”.
